Assays:
[1] = system: PDE4D3 Ser-54; assay: PDE4D3 Ser-54 phosphorylation in mAKAP immunoprecipitates from transfected HEK293 cells (phospho-specific immunoblot); format: cell-based
[2] = system: adult rat ventricular myocytes (ARVM); assay: ARVM morphologic hypertrophy (cell width and length by immunocytochemistry); format: cell-based; conditions: for PE-induced ARVM hypertrophy / basal ARVM morphology: adenoviral expression; for PE-induced ARVM hypertrophy: 20 μM PE 24 hours; for basal ARVM morphology: no drug
Protocol: Adult rat ventricular myocyte isolation and culture: 2-3 month old rats were anesthetized using Ketamine (80-100 mg/kg) and Xylazine (5-10 mg/kg) IP following 1000 U heparinization for cardiac excision. The heart was transferred immediately into chilled perfusion buffer (NaCl 120 mM, KCl 5.4 mM, Na2HPO4·7H2O 1.2 mM, NaHCO320.0 mM, MgCl2·6H2O 1.6 mM, Taurine 5 mM, Glucose 5.6 mM, 2,3-Butanedione monoxime 10 mM) pre-equilibrated with 95% O2 and 5% CO2. After removal of extraneous tissue, the heart was attached via the aorta to a Harvard Langendorff apparatus cannula. Ca^2+-free perfusion was used to flush out remaining blood with a constant rate of 8-10 mL/min at 37° C. The heart was then digested through circulatory perfusion with 50 mL perfusion buffer containing 125 mg type II collagenase (Worthington, 245 U/mg), 0.1 mg protease (Sigma type XIV) and 0.1% BSA. After perfusion, the atria were removed and the ventricular myocytes dissociated by slicing and repetitive pipetting. The debris was filtered by a 200 μm nylon mesh, and the myocytes collected by one minute centrifugation at 50 g. Ca^2+ concentration in the buffer was gradually recovered to 1.8 mM and the myocytes were resuspended in ACCT medium (M199 Medium (Invitrogen 11150-059), Creatine 5 mM, L-carnitine 2 mM, Taurine 5 mM, HEPES 25 mM, 2,3-Butanedione monoxime 10 mM, BSA 0.2% and 1×Insulin-Transferrin-Selenium Supplement) and plated on 10 μg/ml laminin pre-coated dishes. Cells were washed with ACCT medium 1.5 hours after plating and subjected to adenoviral infection or siRNA transfection, in which 100-200 Multiplicity of Infection (MOI) of adenovirus and 100 nmol/L siRNA mixed with Dharmafect1 (Dharmacon) were used, respectively. Adrenergic agonists were added the next day, with biochemical assay and morphological measurement performed after 24 hours of stimulation.
Immunocytochemistry: Myocytes on coverslips were fixed in 3.7% formaldehyde in PBS for 1 hour, permeabilized with 0.3% Triton X-100, and blocked in PBS containing 0.2% BSA and 1% horse serum. The slides were then sequentially incubated for 1 hour with primary and Alexa fluorescent dye-conjugated specific-secondary antibodies (Invitrogen, 1:1000) diluted in blocking buffer. The slips were washed three times with blocking buffer. 1 μg/mL Hoechst 33258 was included in the last wash stop to label nuclei. Slides were sealed in SlowFade Gold antifade buffer (Invitrogen, S36938) for fluorescent microscopy. Wide-field images were acquired using a Leica DM4000 Microscope.

`C=C[C@@]1(C)CC(=O)[C@]2(O)[C@@]3(C)[C@@H](O)CCC(C)(C)[C@@H]3[C@H](O)[C@H](OC(C)=O)[C@@]2(C)O1` [Fsk, forskolin] was tested, and the “further enhancement of PDE4D3 Ser-54 phosphorylation by forskolin” value ([1]; 5 μM Fsk 10 min, in the presence of OA) was 1.8 fold and the “PDE4D3 Ser-54 phosphorylation, forskolin alone” value ([1]; 5 μM Fsk, absence of phosphatase inhibition) was “no significant effect”.

In the case of `CC(C)NCC(O)c1ccc(O)c(O)c1` (stereo not drawn) [Iso, isoproterenol, reference compound], the “ARVM length and width under chronic β-adrenergic stimulation” value ([2]; 10 μM Iso, 24 hours) is reported as “increased both ARVM length and width”.

For `CNC[C@H](O)c1cccc(O)c1` [PE, phenylephrine, reference compound], the “decrease in ARVM length/width ratio” value ([2]; 20 μM PE, 24 hours) was 8-14% and the “increase in ARVM width” value ([2]; 20 μM PE, 24 hours) was 8-10%.

B1: SRF S103D: SRF phosphomimetic mutant expressed by adenovirus (protein, UniProt P11831 1-508, looked up, variant S103D)
Serum response factor: MLPTQAGAAAALGRGSALGGSLNRTPTGRPGGGGGTRGANGGRVPGNGAGLGPGRLEREAAAAAATTPAPTAGALYSGSEGDSESGEEEELGAERRGLKRSLDEMEIGMVVGGPEASAAATGGYGPVSGAVSGAKPGKKTRGRVKIKMEFIDNKLRRYTTFSKRKTGIMKKAYELSTLTGTQVLLLVASETGHVYTFATRKLQPMITSETGKALIQTCLNSPDSPPRSDPTTDQRMSATGFEETDLTYQVSESDSSGETKDTLKPAFTVTNLPGTTSTIQTAPSTSTTMQVSSGPSFPITNYLAPVSASVSPSAVSSANGTVLKSTGSGPVSSGGLMQLPTSFTLMPGGAVAQQVPVQAIQVHQAPQQASPSRDSSTDLTQTSSSGTVTLPATIMTSSVPTTVGGHMMYPSPHAVMYAPTSGLGDGSLTVLNAFSQAPSTMQVSHSQVQEPGGVPQVFLTASSGTVQIPVSAVQLHQMAVIGQQAGSSSNLTELQVVNLDTAHSTKSE
With B1 the “PE-induced ARVM hypertrophy” value [2] was “did not enhance nor diminish” and the “basal ARVM morphology” value [2] was “increased ARVM width”.

B2: SRF S103A: SRF Ser103-to-alanine mutant expressed by adenovirus (protein, UniProt P11831 1-508, looked up, variant S103A)
Serum response factor: MLPTQAGAAAALGRGSALGGSLNRTPTGRPGGGGGTRGANGGRVPGNGAGLGPGRLEREAAAAAATTPAPTAGALYSGSEGDSESGEEEELGAERRGLKRSLAEMEIGMVVGGPEASAAATGGYGPVSGAVSGAKPGKKTRGRVKIKMEFIDNKLRRYTTFSKRKTGIMKKAYELSTLTGTQVLLLVASETGHVYTFATRKLQPMITSETGKALIQTCLNSPDSPPRSDPTTDQRMSATGFEETDLTYQVSESDSSGETKDTLKPAFTVTNLPGTTSTIQTAPSTSTTMQVSSGPSFPITNYLAPVSASVSPSAVSSANGTVLKSTGSGPVSSGGLMQLPTSFTLMPGGAVAQQVPVQAIQVHQAPQQASPSRDSSTDLTQTSSSGTVTLPATIMTSSVPTTVGGHMMYPSPHAVMYAPTSGLGDGSLTVLNAFSQAPSTMQVSHSQVQEPGGVPQVFLTASSGTVQIPVSAVQLHQMAVIGQQAGSSSNLTELQVVNLDTAHSTKSE
With B2 the “PE-induced ARVM hypertrophy” value [2] was “inhibited the PE-induced concentric hypertrophy” and the “basal ARVM morphology” value [2] was “did not affect basal myocyte size”.
